# Results published in PMC6792352, “Limited Chemical Structural Diversity Found to Modulate Thyroid Hormone Receptor in the Tox21 Chemical Library” (Environmental Health Perspectives, 2019).
# Structures can show the parent of a compound that is named as a salt.
# Assay: in vitro
# Conditions: rat, gh3-tre-luc cells, AC50 (uM) modified / 1000
row,SMILES,CC50 at 24 h [µM]
1,"CC(Cl)C(Cl)Cl (stereo not drawn) [1,1,2-Trichloropropane]",> 90
2,COc1cc([S+](C)[O-])ccc1-c1nc2ncccc2[nH]1 (stereo not drawn) [Sulmazole],> 50
3,O=C(N[C@@H](Cc1ccccc1)[C@@H](O)C(=O)N1C[C@@H](O)[C@@H](O)C1)c1cc2cc(Cl)ccc2[nH]1 [Ingliforib],78.2
4,OCC1CC=CCC1 (stereo not drawn) [Cyclohex-3-en-1-ylmethanol],> 90
5,O=C(/C=C/C=C/c1ccc2c(c1)OCO2)N1CCCCC1 [Piperine],> 90
6,CCCCCCCCCCCCCCCC(=O)OC[C@@H](NC(=O)C(Cl)Cl)[C@H](O)c1ccc([N+](=O)[O-])cc1 [Chloramphenicol palmitate],> 50
7,CC(C)CCCC(C)NC(C)C (stereo not drawn) [Iproheptine],> 50
8,CC(C)c1nnc2ccc(-c3ocnc3-c3cc(F)ccc3F)cn12 [CP-863187],> 90
9,CC(C)c1cccc(C(C)C)c1NC(=O)NS(=O)(=O)c1cc(C(C)(C)O)co1 [CP-465394],> 90
10,Cc1nc2cc(Cl)ccc2[nH]1 [5-Chloro-2-methyl-1H-benzimidazole],> 90
11,CC1(C)C2(Cl)C(Cl)C(Cl)C(Cl)(C(Cl)Cl)C1(Cl)C2Cl (stereo not drawn) [Strobane],21
12,O=C1c2cccc3c2[C@H](CCC3)CN1[C@@H]1CN2CCC1CC2 [Palonosetron hydrochloride],23.5
13,C[C@@H]1CCC[C@H](C)N1 [cis-Nanophine hydrochloride],> 20
14,CCCc1ncc(C[n+]2ccccc2C)c(N)n1 [Amprolium hydrochloride],> 20
15,COc1cnc(NS(=O)(=O)c2ccc(N)cc2)nc1 [Sulfameter],> 20
16,"C1OCOCO1 [1,3,5-Trioxane]",> 90
17,CC1(C)[C@H](C(=O)O)N2C(=O)C[C@H]2S1(=O)=O [Sulbactam],> 50
18,NS(=O)(=O)Cc1noc2ccccc12 [Zonisamide],> 50

row,SMILES,CC50 at 24 h [µM]
1,CN(C)CCC(c1ccccc1)c1ccccn1 (stereo not drawn) [Pheniramine maleate],> 90
2,CC(C)(CO)[N+](=O)[O-] [2-Methyl-2-nitro-1-propanol],> 90
3,O=C(Nc1ccccc1)Nc1ccnc(Cl)c1 [Forchlorfenuron],64.7
4,CCCCCCOC(=O)c1cccnc1 [Hexyl nicotinate],> 50
5,C[n+]1ccn(Cc2ccccc2)c1 [1-Benzyl-3-methylimidazolium chloride],> 90
6,Cc1[nH]cnc1CN1CCc2c(c3ccccc3n2C)C1=O [Alosetron hydrochloride],> 50
7,c1ccoc1 [Furan],> 90
8,"O=C(O)c1ccc(C(=O)O)c(C(=O)O)c1 [1,2,4-Benzenetricarboxylic acid]",> 90
9,CCCN1CCC[C@@H]2Cc3n[nH]cc3C[C@H]21 [(-)-Quinpirole hydrochloride],> 50
10,CC(C)(C)C(O)C(Oc1ccc(Cl)cc1)n1cncn1 (stereo not drawn) [Triadimenol],> 90
11,CC(C)(C)C(=O)Oc1ccc(S(=O)(=O)Nc2ccccc2C(=O)NCC(=O)O)cc1 [Sivelestat sodium tetrahydrate],> 50
12,CC(CCC(=O)O)C(=O)O (stereo not drawn) [2-Methylpentanedioic acid],> 90
13,Cc1ccccc1OCC(O)CNCCOc1ccc(C(N)=O)cc1 (stereo not drawn) [Tolamolol],13.4
14,CC[N+](CC)(CC)CCOC(=O)C(C1CCCC1)C1CCCC1 [Diponium bromide],> 50
15,C=C(C)OC(C)=O [Isopropenyl acetate],> 90
16,CO[Si](CCCNCCC[Si](OC)(OC)OC)(OC)OC [3-(Trimethoxysilyl)-N-[3-(trimethoxysilyl)propyl]propan-1-amine],> 90
17,C=Cc1ccccc1C=C [Divinylbenzene],> 400
18,N=C(N)c1ccc2cc(OC(=O)c3ccc(N=C(N)N)cc3)ccc2c1 [Nafamostat mesylate],> 50
